From patent US10650534B2, “Display control and image processing of a cell image” (Sony Corporation, priority 2011, dated 2020)
“Also recorded” adds a separate entry of the source.

Tested on: cultured cardiomyocytes
Test: Propagation of pulsation in cultured cardiomyocytes after drug administration, shown by two-dimensional color maps of the motion amount absolute value
Type: cell-based
Details: for speed of propagation of pulsation / state (direction, path) of propagation of pulsation: compared with organic solvent (control); for state (direction, path) of propagation of pulsation: color maps over 0 to 240 ms; for stop of propagation of pulsation / region without pulsation (motionless region): within the observation region
Source text: A drug evaluation apparatus 100 illustrated in FIG. 3 is an apparatus that conducts evaluation of a drug administered to cultured cardiomyocytes 110 by observing a motion of the cardiomyocytes 110. […] The imaging unit 101 images the cultured cardiomyocytes 110 during a predetermined period. That is, the imaging unit 101 obtains a moving image of the cultured cardiomyocytes 110 as an object. The imaging unit 101 images the cultured cardiomyocytes 110 before and after the drug administration. Note that the imaging unit 101 may image the cultured cardiomyocytes 110 several times after the drug administration according to a predetermined condition, such as after a predetermined time having passed, for example. The evaluation index data generation unit 103 performs, in each frame image of the supplied object to be evaluated image data 112, motion detection of the object to be observed (cultured cardiomyocytes 110) for each block that is a subregion obtained by dividing all regions of an image of the object to be observed (cultured cardiomyocytes 110) into a plurality of regions. The evaluation index data generation unit 103 expresses the detected motion of each block as a motion vector, and obtains the magnitude of the motion vector (motion amount). Note that this motion amount is an absolute value, and therefore, hereinafter, the motion amount will be also referred to as a motion amount absolute value. The evaluation unit 104 maps the motion amount absolute value supplied as the evaluation index data 113 into a two-dimensional color map, and evaluates the drug by expressing the state of propagation of pulsation and further, by quantitatively evaluating the state thereof. The evaluation unit 104 outputs the two-dimensional color map and a quantitative evaluation result as an evaluation value 114. The two-dimensional color map indicates the size of a parameter at each position on a plane in color. In this case, the plane represents an observation region of the cultured cardiomyocytes 110, and the color represents the motion amount absolute value (size of the value). That is, a position of the motion amount absolute value is represented by a position on the plane, and the size of the value is represented in color. That is, a distribution of the motion amount absolute value within the observation region is indicated by a change of the color on the plane. Examples of such a two-dimensional color map are illustrated in FIGS. 4 to 6. The eight color maps illustrated in FIG. 4 respectively indicate the distribution of the motion amount absolute value within the observation region, and a position on the color map indicates a position within the observation region and higher color density indicates a larger motion amount absolute value. […] Note that the arrows on the color maps are drawn for the purpose of description, and they are not drawn on actual color maps.

SMILES | speed of propagation of pulsation | state (direction, path) of propagation of pulsation | stop of propagation of pulsation / region without pulsation (motionless region)
CCCCCCCO [1-Heptanol] | the speed of the propagation is slow | linearly propagated as time passes while changing the direction to revolve | –
CC1(C)[C@@H](O)CC[C@]2(C)[C@H]3C(=O)C=C4[C@@H]5C[C@@](C)(C(=O)O)CC[C@]5(C)CC[C@@]4(C)[C@]3(C)CC[C@@H]12 [18-β-Glycyrrhetinic acid] | the speed of the propagation is slow | proceeds into various directions | the propagation of the pulsation temporarily stops
CC(C)NCC(O)c1ccc(NS(C)(=O)=O)cc1 (racemic) [DL-sotalol] | the speed of the propagation is slower than the left side | propagated from an upper left side to a lower right side, but the propagation stops within the observation region | pulsation is not caused in a part of the observation region in the right side; also recorded: the pulsation is not propagated to the right side portion of the observation region
